This passage reports ring closure, isolated yield results from publication PMC11206203, “Peptide macrocyclisation via intramolecular interception of visible-light-mediated desulfurisation” (Chemical Science, 2024).

This data set can be described thus: C(sp3)-C(sp3) bond formation by visible-light-mediated Cys desulfurisation: alanyl radical adds to terminal alkene of allylglycine (or O-allyl Ser, pentenylGly, acrylamide); TCEP 50 eq (25 mM), (Ir[dF(CF3)ppy]2(dtbpy))PF6 1 mol%, 450 nm blue LED; unprotected peptides. As to conditions: 6 M Gdn.HCl, 0.1 M Na2HPO4 pH 7.5-8.0 / MeCN 9:1, 0.5 mM, 25.0 °C.

Molecule `CC(=O)N[C@H]1CCCC[C@@H](C(N)=O)NC(=O)[C@H](Cc2c[nH]c3ccccc23)NC(=O)[C@H](CCC(N)=O)NC(=O)[C@H](CC(C)C)NC(=O)[C@H](CCC(=O)O)NC1=O` [Ac-(allylGly)-Glu-Leu-Gln-Trp-Cys-NH2] returned a ring closure, isolated yield (from C=CC[C@H](NC(C)=O)C(=O)N[C@@H](CCC(=O)O)C(=O)N[C@@H](CC(C)C)C(=O)N[C@@H](CCC(N)=O)C(=O)N[C@@H](Cc1c[nH]c2ccccc12)C(=O)N[C@@H](CS)C(N)=O, 20-membered ring) of 37%.

Molecule `CC[C@H](C)[C@@H]1NC(=O)[C@H](Cc2ccc(O)cc2)NC(=O)[C@@H](N)CCCC[C@@H](C(=O)N2CCC[C@H]2C(=O)N[C@@H](CC(C)C)C(=O)NCC(N)=O)NC(=O)[C@H](CC(N)=O)NC(=O)[C@H](CCC(N)=O)NC1=O` [H-(allylGly)-Tyr-Ile-Gln-Asn-Cys-Pro-Leu-Gly-NH2] gave a ring closure, isolated yield (from C=CC[C@H](N)C(=O)N[C@@H](Cc1ccc(O)cc1)C(=O)N[C@H](C(=O)N[C@@H](CCC(N)=O)C(=O)N[C@@H](CC(N)=O)C(=O)N[C@@H](CS)C(=O)N1CCC[C@H]1C(=O)N[C@@H](CC(C)C)C(=O)NCC(N)=O)[C@@H](C)CC, 20-membered ring) of 0%.

Consider `CC(=O)N[C@H]1CCCC[C@@H](C(N)=O)NC(=O)[C@H](CCCCN)NC(=O)[C@@H]2CCCN2C(=O)[C@H]([C@@H](C)O)NC1=O` [Ac-(allylGly)-Thr-Pro-Lys-Cys-NH2], for which the ring closure, isolated yield (from C=CC[C@H](NC(C)=O)C(=O)N[C@H](C(=O)N1CCC[C@H]1C(=O)N[C@@H](CCCCN)C(=O)N[C@@H](CS)C(N)=O)[C@@H](C)O, 17-membered ring) came out at 48%.

With `CC[C@H](C)[C@@H]1NC(=O)[C@H](Cc2ccc(O)cc2)NC(=O)[C@@H](N)CCCC[C@@H](C(=O)N2CCC[C@H]2C(=O)N[C@@H](CC(C)C)C(=O)NCC(N)=O)NC(=O)[C@H](CC(N)=O)NC(=O)[C@H](CCC(N)=O)NC1=O` [H-Cys-Tyr-Ile-Gln-Asn-(allylGly)-Pro-Leu-Gly-NH2], the ring closure, isolated yield (from C=CC[C@H](NC(=O)[C@H](CC(N)=O)NC(=O)[C@H](CCC(N)=O)NC(=O)[C@@H](NC(=O)[C@H](Cc1ccc(O)cc1)NC(=O)[C@@H](N)CS)[C@@H](C)CC)C(=O)N1CCC[C@H]1C(=O)N[C@@H](CC(C)C)C(=O)NCC(N)=O, 20-membered ring) turned out to be 52%.

`C[C@@H]1NC(=O)[C@H](Cc2ccccc2)NC(=O)[C@H](C)NC(=O)[C@@H](N)CCCC[C@@H](C(N)=O)NC1=O` [H-(allylGly)-Ala-Phe-Ala-Cys-NH2] gave a ring closure, isolated yield (from C=CC[C@H](N)C(=O)N[C@@H](C)C(=O)N[C@@H](Cc1ccccc1)C(=O)N[C@@H](C)C(=O)N[C@@H](CS)C(N)=O, 17-membered ring, 0.75 h) of 79%.

Under “from C=CC[C@H](NC(C)=O)C(=O)N[C@H](C(=O)NCC(=O)N[C@@H](CC(=O)O)C(=O)N[C@@H](CS)C(N)=O)C(C)C, 17-membered ring”, `CC(=O)N[C@H]1CCCC[C@@H](C(N)=O)NC(=O)[C@H](CC(=O)O)NC(=O)CNC(=O)[C@H](C(C)C)NC1=O` [Ac-(allylGly)-Val-Gly-Asp-Cys-NH2] had a ring closure, isolated yield of 54%.

Molecule `CC1CC[C@@H](C(N)=O)NC(=O)[C@H](C)NC(=O)[C@H](Cc2ccccc2)NC(=O)[C@H](C)NC(=O)[C@@H](N)COC1` (stereo partly drawn) [H-Ser(O-2-methylallyl)-Ala-Phe-Ala-Cys-NH2] showed a ring closure, isolated yield (from C=C(C)COC[C@H](N)C(=O)N[C@@H](C)C(=O)N[C@@H](Cc1ccccc1)C(=O)N[C@@H](C)C(=O)N[C@@H](CS)C(N)=O, 19-membered ring, 0.17 h) of 77%.

Molecule `CSCC[C@@H]1NC(=O)[C@@H](N)CCCC[C@@H](C(N)=O)NC(=O)[C@H](CCCNC(=N)N)NC(=O)[C@H](CC(C)C)NC(=O)[C@H](Cc2c[nH]c3ccccc23)NC(=O)[C@@H]2CCCN2C1=O` [H-(allylGly)-Met-Pro-Trp-Leu-Arg-Cys-NH2] gave a ring closure, isolated yield (from C=CC[C@H](N)C(=O)N[C@@H](CCSC)C(=O)N1CCC[C@H]1C(=O)N[C@@H](Cc1c[nH]c2ccccc12)C(=O)N[C@@H](CC(C)C)C(=O)N[C@@H](CCCNC(=N)N)C(=O)N[C@@H](CS)C(N)=O, 23-membered ring) of 65%.

With `C[C@@H]1NC(=O)[C@H](Cc2ccccc2)NC(=O)[C@H](C)NC(=O)[C@@H](N)CCCCCC[C@@H](C(N)=O)NC1=O` [H-(4-pentenylGly)-Ala-Phe-Ala-Cys-NH2], under “from C=CCCC[C@H](N)C(=O)N[C@@H](C)C(=O)N[C@@H](Cc1ccccc1)C(=O)N[C@@H](C)C(=O)N[C@@H](CS)C(N)=O, 19-membered ring, 1.0 h”, the ring closure, isolated yield stood at 32%.

`CSCC[C@@H]1NC(=O)[C@@H]2CCCN2C(=O)[C@H](CCCNC(=N)N)NC(=O)[C@@H](N)CCCC[C@@H](C(N)=O)NC(=O)[C@H](Cc2c[nH]cn2)NC1=O` [H-(allylGly)-Arg-Pro-Met-His-Cys-NH2] displayed a ring closure, isolated yield (from C=CC[C@H](N)C(=O)N[C@@H](CCCNC(=N)N)C(=O)N1CCC[C@H]1C(=O)N[C@@H](CCSC)C(=O)N[C@@H](Cc1c[nH]cn1)C(=O)N[C@@H](CS)C(N)=O, 20-membered ring) of 0%.

Under “from C=CC[C@H](NC(=O)[C@H](C)NC(=O)[C@H](CC(C)C)NC(=O)[C@H](Cc1c[nH]cn1)NC(C)=O)C(=O)N[C@H](C(=O)NCC(=O)N[C@@H](CC(=O)O)C(=O)N[C@@H](CS)C(=O)N[C@@H](CCCC)C(=O)N[C@@H](CC(=O)O)C(=O)N[C@@H](CCCNC(=N)N)C(N)=O)C(C)C, 17-membered ring”, `CCCC[C@H](NC(=O)[C@@H]1CCCC[C@H](NC(=O)[C@H](C)NC(=O)[C@H](CC(C)C)NC(=O)[C@H](Cc2c[nH]cn2)NC(C)=O)C(=O)N[C@@H](C(C)C)C(=O)NCC(=O)N[C@@H](CC(=O)O)C(=O)N1)C(=O)N[C@@H](CC(=O)O)C(=O)N[C@@H](CCCNC(=N)N)C(N)=O` [Ac-His-Leu-Ala-(allylGly)-Val-Gly-Asp-Cys-Nle-Asp-Arg-NH2] registered a ring closure, isolated yield of 23%.

Regarding `CCCC[C@@H]1NC(=O)[C@H](CO)NC(=O)[C@H](CC(=O)O)NC(=O)CNC(=O)[C@H](C(C)C)NC(=O)[C@H](CCC(N)=O)NC(=O)[C@@H](NC(=O)[C@H](CC(C)C)NC(=O)[C@H](Cc2c[nH]cn2)NC(=O)[C@H](CCCNC(=N)N)NC(C)=O)CCCC[C@@H](C(=O)N[C@@H](CCCNC(=N)N)C(=O)N[C@@H](CO)C(=O)N[C@H](C(N)=O)[C@@H](C)CC)NC1=O`, the ring closure, isolated yield (from C=CC[C@H](NC(=O)[C@H](CC(C)C)NC(=O)[C@H](Cc1c[nH]cn1)NC(=O)[C@H](CCCNC(=N)N)NC(C)=O)C(=O)N[C@@H](CCC(N)=O)C(=O)N[C@H](C(=O)NCC(=O)N[C@@H](CC(=O)O)C(=O)N[C@@H](CO)C(=O)N[C@@H](CCCC)C(=O)N[C@@H](CS)C(=O)N[C@@H](CCCNC(=N)N)C(=O)N[C@@H](CO)C(=O)N[C@H](C(N)=O)[C@@H](C)CC)C(C)C, 26-membered ring) is 23%.

With `CC[C@H](C)[C@@H]1NC(=O)[C@H](CCCCN)NC(=O)[C@H](Cc2ccc(O)cc2)NC(=O)[C@H](CO)NC(=O)[C@H](CC(=O)O)NC(=O)[C@@H](NC(C)=O)CCCC[C@@H](C(N)=O)NC1=O` [Ac-(allylGly)-Asp-Ser-Tyr-Lys-Ile-Cys-NH2], the ring closure, isolated yield (from C=CC[C@H](NC(C)=O)C(=O)N[C@@H](CC(=O)O)C(=O)N[C@@H](CO)C(=O)N[C@@H](Cc1ccc(O)cc1)C(=O)N[C@@H](CCCCN)C(=O)N[C@H](C(=O)N[C@@H](CS)C(N)=O)[C@@H](C)CC, 23-membered ring) came to 58%.

As to `CC[C@H](C)[C@@H]1NC(=O)[C@H](CCCCN)NC(=O)[C@@H](NC(C)=O)CCCC[C@@H](C(N)=O)NC(=O)[C@H](Cc2ccc(O)cc2)NC(=O)[C@H](CO)NC1=O` [Ac-Cys-Lys-Ile-Ser-Tyr-(allylGly)-NH2], the ring closure, isolated yield (from C=CC[C@H](NC(=O)[C@H](Cc1ccc(O)cc1)NC(=O)[C@H](CO)NC(=O)[C@@H](NC(=O)[C@H](CCCCN)NC(=O)[C@H](CS)NC(C)=O)[C@@H](C)CC)C(N)=O, 20-membered ring) is 64%.

`CSCC[C@@H]1NC(=O)[C@H](Cc2ccc(O)cc2)NC(=O)[C@H](CC(C)C)NC(=O)[C@@H](NC(C)=O)CCCC[C@@H](C(N)=O)NC1=O` [Ac-(allylGly)-Leu-Tyr-Met-Cys-NH2] came in with a ring closure, isolated yield (from C=CC[C@H](NC(C)=O)C(=O)N[C@@H](CC(C)C)C(=O)N[C@@H](Cc1ccc(O)cc1)C(=O)N[C@@H](CCSC)C(=O)N[C@@H](CS)C(N)=O, 17-membered ring) of 69%.

On to `CCCC[C@@H]1NC(=O)[C@H](CO)NC(=O)[C@H](CC(=O)O)NC(=O)CNC(=O)[C@H](C(C)C)NC(=O)[C@H](CCC(N)=O)NC(=O)[C@@H](NC(C)=O)CCCC[C@@H](C(N)=O)NC1=O` [Ac-(allylGly)-Gln-Val-Gly-Asp-Ser-Nle-Cys-NH2], for which the ring closure, isolated yield (from C=CC[C@H](NC(C)=O)C(=O)N[C@@H](CCC(N)=O)C(=O)N[C@H](C(=O)NCC(=O)N[C@@H](CC(=O)O)C(=O)N[C@@H](CO)C(=O)N[C@@H](CCCC)C(=O)N[C@@H](CS)C(N)=O)C(C)C, 26-membered ring) came to 76%.
